Reference: US10865216B2, “Tricyclic Gyrase inhibitors” (MERCK SHARP & DOHME CORP., priority 2012, dated 2020)
Values after ≈ are worked out from the molar mass of the structure shown.

Key:
E. coli ATCC 25922 = assay: MIC, E. coli ATCC 25922; type: cell-based; conditions: E. coli; Alamar Blue read after overnight incubation at 35° C.
S. aureus ATCC 13709 = assay: MIC, S. aureus ATCC 13709; type: cell-based; conditions: S. aureus; Alamar Blue read after overnight incubation at 35° C.

Row | MIC Ec (E. coli ATCC 25922) [µg/mL] | MIC Sa (S. aureus ATCC 13709) [µg/mL] | Structure (SMILES)
1 | ≤0.5 | ≤0.5 | CNc1cc(F)cc2c1[nH]c1nc(Oc3cnc(N)nc3)nc(N3CC4C(N)C4C3)c12 (stereo not shown) [Compound 4.172]
2 | 1 (≈ 2.3 µM) | ≤0.5 | CNc1cc(F)cc2c1[nH]c1nc(Oc3cnc(N)nc3)nc(N3CCC4(CC4N)C3)c12 (stereo not shown) [Compound 4.173]
3 | ≤0.5 | ≤0.5 | CNc1cc(F)cc2c1[nH]c1nc(Oc3cnc(N)nc3)nc(N3CCC4(C[C@H]4N)C3)c12 (stereo partly shown) [Compound 4.174]
4 | 1 (≈ 2.36 µM) | ≤0.5 | CNc1cc(F)cc2c1[nH]c1nc(Oc3cnc(N)nc3)nc(N3CCC(CN)C3)c12 (stereo not shown) [Compound 4.176]
5 | ≤0.5 | ≤0.5 | CNc1cc(F)cc2c1[nH]c1nc(Oc3cnc(N)nc3)nc(N3CC(N)C4(CC4)C3)c12 (stereo not shown) [Compound 4.177]
6 | 8 (≈ 19 µM) | ≤0.5 | CNc1cc(F)cc2c1[nH]c1nc(Oc3cnc(N)nc3)nc(N3CC4CNC4C3)c12 (stereo not shown) [Compound 4.178]
7 | 1 (≈ 2.44 µM) | ≤0.5 | CNc1cc(F)cc2c1[nH]c1nc(Oc3cnc(N)nc3)nc(N3CCC(N)C3)c12 (stereo not shown) [Compound 4.179]
8 | 8 (≈ 18.9 µM) | 1 (≈ 2.36 µM) | CNc1cc(F)cc2c1[nH]c1nc(Oc3cnc(N)nc3)nc(N3CCCC(N)C3)c12 (stereo not shown) [Compound 4.180]
9 | 16 (≈ 32.5 µM) | 2 (≈ 4.06 µM) | CNc1cc(F)cc2c1[nH]c1nc(Oc3cnc(N)nc3)nc(N3CC(NC(=O)CN)C4(CC4)C3)c12 (stereo not shown) [Compound 4.182]
10 | 8 (≈ 17.8 µM) | 1 (≈ 2.22 µM) | CNc1cc(F)cc2c1[nH]c1nc(Oc3cnc(N)nc3)nc(N3C4CCC3CC(N)C4)c12 (stereo not shown) [Compound 4.183]
11 | 1 (≈ 2.3 µM) | ≤0.5 | CNc1cc(F)cc2c1[nH]c1nc(Oc3cnc(N)nc3)nc(N3CC4CC(N)C4C3)c12 (stereo not shown) [Compound 4.184]
12 | 8 (≈ 18.4 µM) | ≤0.5 | CNc1cc(F)cc2c1[nH]c1nc(Oc3cnc(N)nc3)nc(N3CC4CC4(CN)C3)c12 (stereo not shown) [Compound 4.185]
13 | 2 (≈ 4.59 µM) | ≤0.5 | CNc1cc(F)cc2c1[nH]c1nc(Oc3cnc(N)nc3)nc(N3CC4CCNC4C3)c12 (stereo not shown) [Compound 4.187]
14 | 8 (≈ 18.4 µM) | ≤0.5 | CNc1cc(F)cc2c1[nH]c1nc(Oc3cnc(N)nc3)nc(N3CC4C(CN)C4C3)c12 (stereo not shown) [Compound 4.188]
15 | 2 (≈ 4.45 µM) | ≤0.5 | CNc1cc(F)cc2c1[nH]c1nc(Oc3cnc(N)nc3)nc(N3CC4CCC(N)C4C3)c12 (stereo not shown) [Compound 4.189]
16 | 1 (≈ 2.3 µM) | ≤0.5 | CNc1cc(F)cc2c1[nH]c1nc(Oc3cnc(N)nc3)nc(N3CC4CC(N)C4C3)c12 (stereo not shown) [Compound 4.190]
17 | ≤0.5 | ≤0.5 | CNc1cc(F)cc2c1[nH]c1nc(Oc3cnc(SC)nc3)nc(N3CC4C(N)C4C3)c12 (stereo not shown) [Compound 4.193]
18 | 1 (≈ 2.14 µM) | ≤0.5 | CNc1cc(F)cc2c1[nH]c1nc(Oc3cnc(SC)nc3)nc(N3CCC4(CC4N)C3)c12 (stereo not shown) [Compound 4.195]
19 | ≤0.5 | ≤0.5 | CNc1cc(F)cc2c1[nH]c1nc(Oc3cnc(SC)nc3)nc(N3CC4CC(N)C4C3)c12 (stereo not shown) [Compound 4.196]
20 | ≤0.5 | ≤0.5 | CNc1cc(F)cc2c1[nH]c1nc(Oc3cnc(SC)nc3)nc(N3CC4C(CN)C4C3)c12 (stereo not shown) [Compound 4.197]
21 | ≤0.5 | ≤0.5 | CNc1cc(F)cc2c1[nH]c1nc(Oc3cnc(SC)nc3)nc(N3CC4CCNC4C3)c12 (stereo not shown) [Compound 4.198]
22 | ≤0.5 | ≤0.5 | CNc1cc(F)cc2c1[nH]c1nc(Oc3cnc(SC)nc3)nc(N3CCC(N)C3)c12 (stereo not shown) [Compound 4.199]
23 | ≤0.5 | ≤0.5 | CNc1cc(F)cc2c1[nH]c1nc(Oc3cnc(SC)nc3)nc(N3CC4CCC(N)C4C3)c12 (stereo not shown) [Compound 4.200]
